# “And” between values parts separate entries of the source, which are not always exact repeats. Equal values may be shown once.
# Columns and labels:
# [1] = test system: diamondback moth, Plutella xylostella; experiment: Cabbage leaf disc bioassay (track sprayer, 400 L/Ha) on second instar diamondback moths, percent control, synergy by Colby's equation; assay type: in vivo; conditions: single active
# Source text: (§1) The method described in Colby S. R., “Calculating Synergistic and Antagonistic Responses of Herbicide Combinations,” Weeds, 1967, 15, 20-22 was used to determine an existence of synergic effect between the ryanodine receptor modulator compound and the pesticide (I), (II), or any agriculturally acceptable salt thereof in the formulated pesticidal composition. In this method, the percent insect control of the formulated pesticidal composition as observed in the study was compared to the “expected” percent control (E) as calculated by equation (1) (hereinafter “Colby's equation”) below: […]
# (§2) where • X is the percentage of control with the first pesticide at a given rate (p), • Y is the percentage of control with the second pesticide at a given rate (q), and • E is the expected control by the first and second pesticide at a rate of p+q.
# Bioassays were performed for different active compounds. Cabbage plants with about two to three new-growth—true leaf stage were treated with different pesticides using a track sprayer application at 400 L/Ha spray volume. Three second instar diamondback moths, Plutella xylostella, were infested onto each leaf disc.
# Bioassays were performed for different active compounds. Cabbage plants with about two to three new-growth—true leaf stage were treated with different pesticides using a track sprayer at a rate of 400 L/Ha. Three second instar diamondback moths, Plutella xylostella, were infested onto each leaf disc.
# [2] = test system: brown stink bug, Euschistus heros; experiment: Diet bioassay on second-instar nymphs of brown stink bug, percent control, synergy by Colby's equation; assay type: in vivo; conditions: single active, dose rate 0.04 weight %
# Source text: as §1, §2
# The percent control of the pesticidal composition against brown stink bug, Euschistus heros, was determined as the “Observed” action, and compared to those obtained by using about 0.04 weight % of compound II, and using about 0.000156 weight % of cyantraniliprole alone. The “Colby's Expected Action” was calculated using Colby's equation as discussed previously.
structure (smiles),measurement,setting,value
"CNC(=O)c1cc(Cl)cc(C)c1NC(=O)c1cc(Br)nn1-c1ncccc1Cl [Chlorantraniliprole, 3-bromo-N-[4-chloro-2-methyl-6-[(methylamino)carbonyl]phenyl]-1-(3-chloro-2-pyridinyl)-1H-pyrazole-5-carboxamide]",% Control Three Days After Treatment,[1]; dose rate 0.0000347 weight %,25%
same,% Control Three Days After Treatment,[1]; dose rate 0.000104 weight %,62.5%
same,% Control Three Days After Treatment,[1]; dose rate 0.0003125 weight %,66.67%
Cc1cc(C(F)(C(F)(F)F)C(F)(F)F)ccc1NC(=O)c1cccc(I)c1C(=O)NC(C)(C)CS(C)(=O)=O [Flubendiamide],% Control Three Days After Treatment,[1]; dose rate 0.0003125 weight %,8.70%
"CCN(C(=O)CCSCCC(F)(F)F)c1cn(-c2cccnc2)nc1Cl [Compound I, N-(3-chloro-1-(pyridin-3-yl)-1H-pyrazol-4-yl)-N-ethyl-3-((3,3,3-trifluoropropyl)thio)propanamide]",% Control Three Days After Treatment,[1]; dose rate 0.0025 weight %,4.35% and 0%
"CCN(C(=O)CC[S+]([O-])CCC(F)(F)F)c1cn(-c2cccnc2)nc1Cl (stereo not drawn) [Compound II, N-(3-chloro-1-(pyridin-3-yl)-1H-pyrazol-4-yl)-N-ethyl-3-((3,3,3-trifluoropropyl)sulfinyl)propanamide]",% Control Six Days After Treatment,[2],0%

# Reference: patent US20160150784A1, “SYNERGISTIC PESTICIDAL COMPOSITIONS AND RELATED METHODS” (Dow AgroSciences LLC, priority 2013, published 2016)
